Test results as given in US20210052529A1, “PHARMACEUTICAL COMPOSITIONS COMPRISING DICARBOXYLIC ACIDS AND THEIR THERAPEUTIC APPLICATIONS” (Cura Therapeutics, LLC, priority 2018, published 2021).
Values joined by “and” are separate entries in the source; they are usually repeats but may differ in a detail not shown here. Equal entries are not always repeated. Where two headings read alike, the source gives them in different places.

Columns and labels:
[1] = Pharmacokinetic study in rats; assay type: in vivo
Procedure: A pharmacokinetic study on compound B1 was carried out in rats.

[2] = assay type: in vitro ADME, human; conditions: for Mean Height / % Remaining: human, 1 μM; for % Remaining: plasma
Procedure: Compound B1 was spiked directly into an individual lot of fresh human plasma, with sodium heparin as the anticoagulant, such that the final assay concentration of the compound was 1.00 μM. After incubation at room temperature for 0, 0.5, 1, 2, and 4 hours, samples were removed and aliquoted for analysis. Valacyclovir was used as a positive control. The plasma samples containing a test compound were processed by protein precipitation.
A primary 0.500 mM stock solution of compound B1 was prepared in either acetonitrile or acetonitrile:water (1:1, v/v). A 0.200 mM working stock was made from the primary stock in acetonitrile:water (1:1, v/v), which was used in the human plasma stability study. The primary and working stock solutions were stored at −20° C. when not in use. When it was used in the assay, the working stock was kept at room temperature for as short a time as possible.
The human plasma stability study was initiated by adding 5.00 μL of compound B1 stock solution to 0.995 mL of human plasma (sodium heparin) in a 1.7-mL snap tube. Time zero points were generated by immediately removing duplicate 50.0 μL aliquots of plasma after initiating each incubation and quenching in 150 μL of methanol. The plasma incubation tubes were capped and remained at room temperature between time points.
After 0.5, 1, 2, and 4 hours of incubation, duplicate 50.0 μL aliquots of plasma were removed and placed into the extraction tubes containing 150 μL of methanol. Each time point was immediately extracted by vortex mixing, centrifuged and the supernate removed to HPLC vial for analysis. After extraction of all samples, the extracts were analyzed by LC/MS/MS.
LC/MS/MS analysis of the incubation solutions was conducted by initial separation of the test compound peak using chromatography prior to detection by the mass spectrometer. The LC/MS system was comprised of a HPLC coupled with a TQS-Micro or Quattro Premier. The mobile phase was nebulized using heated nitrogen in a Z-spray source/interface set to electrospray in either positive ionization mode or negative ionization mode. The ionized compounds were detected using MS/MS. The data was acquired using MassLynx.

[3] = Compound concentration in the CSF of rats; assay type: in vivo
Procedure: Compound B1 in the CSF of the rats was also analyzed. The results are shown in Table 4 below wherein BQL stands for below the quantifiable limit of 2.0 ng/mL.

## O=C(O)c1ccc(NC(=O)[C@@H]2CCC[C@H](C(=O)Nc3ccc(C(=O)O)cc3)C2)cc1 [B1, 4,4′-(((1R,3S)-cyclohexane-1,3-dicarbonyl)bis(azanediyl))dibenzoic acid]
[1]; IV
  AUCINF/Dose: 2950
  CL or CL/F: 4.8 mL/min/kg
  HL: 1.9 h
[1]; PO
  AUCINF/Dose: 43
  HL: 14 h
[1]; rat, in vivo, 1 mg/kg, IV
  AUC(0-inf): 2950 ng·h/mL
  AUC(0-t): 2950 ng·h/mL
  Cmax: 3980 ng/mL
[1]; rat, in vivo, 10 mg/kg, PO
  AUC(0-inf): 431 ng·h/mL
  AUC(0-t): 267 ng·h/mL
  Cmax: 29 ng/mL
  Tmax: 2 h
  bioavailability: 1.25%
[1]; rat, in vivo, 10 mg/kg, PO, read-out: CL or CL/F
  CL/F: 387 mL/min/kg
[2]
  Metabolism in fresh human plasma: not significantly metabolized
[2]; 0 h
  Mean Height: 9,610
  % Remaining: 100%
[2]; 0.5 h
  Mean Height: 9,430
  % Remaining: 98.1%
[2]; 1 h
  Mean Height: 9,330
  % Remaining: 97.1%
[2]; 2 h
  Mean Height: 9,610
  % Remaining: 100%
[2]; 4 h
  Mean Height: 9,000
  % Remaining: 93.7%
[3]; IV, 0.00 h, individual animals
  CSF Concentration: BQL (below the quantifiable limit of 2.0 ng/mL)
[3]; IV, 0.5 h, individual animals
  CSF Concentration: 26 ng/mL and 17 ng/mL and 36 ng/mL
[3]; IV, 1.0 h, individual animals
  CSF Concentration: 51 ng/mL and 391 ng/mL and 17 ng/mL
[3]; IV, 2.0 h, individual animals
  CSF Concentration: 33 ng/mL and 27 ng/mL
[3]; IV, 4.0 h, individual animals
  CSF Concentration: 10 ng/mL and 21 ng/mL and 4.5 ng/mL
[3]; IV, 8.0 h, individual animals
  CSF Concentration: 1.8 ng/mL
[3]; IV, 12 h, individual animals
  CSF Concentration: BQL (below the quantifiable limit of 2.0 ng/mL)
[3]; PO, 0.00 h, individual animals
  CSF Concentration: BQL (below the quantifiable limit of 2.0 ng/mL)
[3]; PO, 0.5 h, individual animals
  CSF Concentration: BQL (below the quantifiable limit of 2.0 ng/mL)
[3]; PO, 1.0 h, individual animals
  CSF Concentration: BQL (below the quantifiable limit of 2.0 ng/mL)
[3]; PO, 2.0 h, individual animals
  CSF Concentration: BQL (below the quantifiable limit of 2.0 ng/mL)
[3]; PO, 4.0 h, individual animals
  CSF Concentration: BQL (below the quantifiable limit of 2.0 ng/mL)
[3]; PO, 8.0 h, individual animals
  CSF Concentration: BQL (below the quantifiable limit of 2.0 ng/mL)
[3]; PO, 12 h, individual animals
  CSF Concentration: BQL (below the quantifiable limit of 2.0 ng/mL)
[3]; rat, CSF, iv, 0.5 h, mean
  concentration at 0.5 h: 27 ng/mL
[3]; rat, CSF, iv, 1.0 h, mean
  concentration at 1 h: 153 ng/mL
[3]; rat, CSF, iv, 2.0 h, individual animals, read-out: CSF Concentration
  concentration at 2 h: 17 ng/mL
[3]; rat, CSF, iv, 2.0 h, mean, read-out: CSF Concentration, Mean
  concentration at 2 h: 26 ng/mL
[3]; rat, CSF, iv, 4.0 h, mean
  concentration at 4 h: 12 ng/mL
[3]; rat, CSF, iv, 8.0 h, individual animals, read-out: CSF Concentration
  concentration at 8 h: 1.2 ng/mL
[3]; rat, CSF, iv, 8.0 h, mean, read-out: CSF Concentration, Mean
  concentration at 8 h: 1.5 ng/mL
[3]; rat, CSF, po, 10 mg/kg, PO, 2.0 h, individual animals, read-out: CSF Concentration
  concentration at 2 h: 4.6 ng/mL
[3]; rat, CSF, po, 10 mg/kg, PO, 2.0 h, mean (N=1), read-out: CSF Concentration, Mean
  concentration at 2 h: 4.6 ng/mL

## CC(C)[C@H](N)C(=O)OCCOCn1cnc2c(=O)[nH]c(N)nc21 [Valacyclovir, reference compound]
[2]; 0 h
  Mean Height: 21,400
  % Remaining: 100%
[2]; 0.5 h
  Mean Height: 20,700
  % Remaining: 96.7%
[2]; 1 h
  Mean Height: 20,500
  % Remaining: 95.8%
[2]; 2 h
  Mean Height: 19,800
  % Remaining: 92.5%
[2]; 4 h
  Mean Height: 17,700
  % Remaining: 82.7%
